Legend:
M. Smegmatis ATCC607 = experiment: In-vitro method for testing compounds for anti-bacterial activity against strain M. Smegmatis ATCC607; type: cell-based; settings: M. smegmatis growth inhibition, 48 hours at 37° C., Alamar Blue fluorescence; for IC50: Mycolicibacterium smegmatis, ATCC607, 48 h
Procedure: D.2. In-vitro method for testing compounds for anti-bacterial activity against strain M. Smegmatis ATCC607.
Flat-bottom, sterile 96-well plastic microtiter plates were filled with 180 μl of sterile deionized water, supplemented with 0.25% BSA. Subsequently, stock solutions (7.8× final test concentration) of compounds were added in 45 μl volumes to a series of duplicate wells in column 2 so as to allow evaluation of their effects on bacterial growth. Serial five-fold dilutions (45 μl in 180 μl) were made directly in the microtiter plates from column 2 to 11 using a customised robot system (Zymark Corp., Hopkinton, Mass.). Pipette tips were changed after every 3 dilutions to minimize pipetting errors with high hydrophobic compounds. Untreated control samples with (column 1) and without (column 12) inoculum were included in each microtiter plate. Approximately 250 CFU per well of bacteria inoculum, in a volume of 100 μl in 2.8× Mueller-Hinton broth medium, was added to the rows A to H, except column 12. The same volume of broth medium without inoculum was added to column 12 in row A to H. The cultures were incubated at 37° C. for 48 hours in a humidified 5% CO2 atmosphere (incubator with open air valve and continuous ventilation). At the end of incubation, two days after inoculation, the bacterial growth was quantitated fluorometrically. Therefore Alamar Blue (10×) was added to all wells in a volume of 20 μl and plates were incubated for another 2 hours at […]
The fluorescence was read in a computer-controlled fluorometer (Cytofluor, Biosearch) at an excitation wavelength of 530 nm and an emission wavelength of 590 nm (gain 30). The % growth inhibition achieved by the compounds was calculated according to standard methods. The pIC50 was defined as the 50% inhibitory concentration for bacterial growth.

Compound	melting point	IC50 (M. Smegmatis ATCC607)	pIC50 (M. Smegmatis ATCC607)
COc1nc2ccc(Cl)cc2cc1[C@@H](c1ccccc1)[C@@]1(c2cccc3ccccc23)CC[N+](C)(C)CO1.[I-] (single isomer, unassigned)	195 °C	–	–
COc1nc2ccc(Cl)cc2cc1[C@@H](c1ccccc1)[C@]1(c2cccc3ccccc23)CC[N+](C)(C)CO1.[I-] (single isomer, unassigned)	211 °C	–	–
COc1nc2ccc(Br)cc2cc1[C@@H](c1ccccc1)[C@]1(c2cccc3ccccc23)CCN(C)CO1 (single isomer, unassigned) [Compound 1]	112 °C	3.16 nM	–
COc1nc2ccc(Br)cc2cc1[C@@H](c1ccc(Cl)cc1)[C@]1(c2cccc3ccccc23)CCN(C)CO1 (single isomer, unassigned) [Compound 2]	201 °C	63.1 nM	–
COc1nc2ccc(Cl)cc2cc1[C@@H](c1ccccc1)[C@@]1(c2cccc3ccccc23)CCN(C)CO1 (single isomer, unassigned) [Compound 3]	189 °C	–	5.1
CCN1CC[C@](c2ccc(F)cc2F)(C(c2ccccc2)c2cc3cc(Br)ccc3nc2OC)OC1=O (single isomer, unassigned) [Compound 5]	192 °C	20000 nM	–
COc1nc2ccc(-c3ccccc3)cc2cc1[C@@H](c1ccccc1)[C@]1(c2cccc3ccccc23)CCN(C)CO1 (single isomer, unassigned) [Compound 6]	–	25.1 nM	–
COc1nc2ccc(Cl)cc2cc1[C@@H](c1ccccc1)[C@@]1(c2cccc3ccccc23)CCN(C)CO1 (single isomer, unassigned) [Compound 7]	–	–	7.9
COc1ccc2nc(OC)c([C@@H](c3ccccc3)[C@]3(c4cccc5ccccc45)CCN(C)CO3)cc2c1 (single isomer, unassigned) [Compound 8]	–	63.1 nM	–
COc1nc2ccc(Br)cc2cc1[C@@H](c1ccccc1)[C@@]1(c2cccc3ccccc23)CCN(C)CO1 (single isomer, unassigned) [Compound 11]	108 °C	316 nM	–
COc1nc2ccc(Br)cc2cc1[C@H](c1ccccc1)C1(c2ccccc2)CCN(C)CO1 (single isomer, unassigned) [Compound 12]	168 °C	158 nM	–
COc1nc2ccc(-c3ccccc3)cc2cc1[C@@H](c1ccccc1)[C@@]1(c2cccc3ccccc23)CCN(C)CO1 (single isomer, unassigned) [Compound 13]	–	316 nM	–
COc1ccc2nc(OC)c([C@@H](c3ccccc3)[C@@]3(c4cccc5ccccc45)CCN(C)CO3)cc2c1 (single isomer, unassigned) [Compound 14]	–	316 nM	–
COc1nc2ccc(-c3ccco3)cc2cc1[C@@H](c1ccccc1)[C@@]1(c2cccc3ccccc23)CCN(C)CO1 (single isomer, unassigned) [Compound 16]	–	316 nM	–
COc1nc2ccc(Br)cc2cc1[C@@H](c1ccc(Cl)cc1)[C@@]1(c2cccc3ccccc23)CCN(C)CO1 (single isomer, unassigned) [Compound 17]	–	316 nM	–
CCN1CC[C@@](c2ccc(F)cc2F)(C(c2ccccc2)c2cc3cc(Br)ccc3nc2OC)OC1=O (single isomer, unassigned) [Compound 19]	216 °C	–	–

Reference: patent publication US7338949B2, “Mycobacterial inhibitors” (Janssen Pharmaceutica N.V., priority 2004, dated 2008)
